Data as given in US20030053977A1, “Compositions comprising at least one aminated C5-C7 saccharide unit, and their use for the protection and/or repair of keratinous fibers” (priority 2001, published 2003).

Columns and labels:
[1] = DSC doublet peak area of normal blonde hair after 12 heat cycles (lyxosylamine)
Procedure: Normal brown hair was processed with Revlon Realistic Professional Extra-Strength Relaxer for 30 min. at standard room temperature and humidity. The relaxed brown hair was subjected to six heat cycles, each heat cycle comprised applying the treatment solutions to the hair, blow-drying the hair, and applying heat to the hair for 1 min. in the form of the Professional Flat Iron (Solid Gold) set at “High” (130° C. to 135° C.). The hair was shampooed with a 10% solution of sodium laureth sulfate after each heat cycle, that is, after the heat application and prior to application of the treatment solution.
Normal blonde hair was subjected to 12 heat cycles, as described in Example 2, using a 0.1 wt % solution of D-Lyxosylamine.

[2] = DSC doublet peak area (alpha-structure) of relaxed hair after six heat cycles
Procedure: In the DSC experiments (using DSC-6 with Autosampler, Perkin Elmer), the hair was cut in small fragments (1-2 mm) and sealed in […] aluminum pans that were punctured prior to heating, resulting in a 50 micron laser-drilled opening in the pan lid. The hair was heated from 25° C. to 300° C. at a heating rate of 2^0° C./min. Three runs per section were performed. The results were averaged and standard deviations determined. Normal brown hair was processed with Revlon Realistic Professional Extra-Strength Relaxer for 30 min. at standard room temperature and humidity. The relaxed brown hair was subjected to six heat cycles, each heat cycle comprised applying the treatment solutions to the hair, blow-drying the hair, and applying heat to the hair for 1 min. in the form of the Professional Flat Iron (Solid Gold) set at “High” (130° C. to 135° C.). The hair was shampooed with a 10% solution of sodium laureth sulfate after each heat cycle, that is, after the heat application and prior to application of the treatment solution. The treatment solutions included: a) deionized water; and b) 1% (w/v) glucosamine hydrochloride (Glucosamine HCl). The hair swatches from Example 2 were studied by differential scanning calorimetry (DSC). In this example, the hair was equilibrated at standard room temperature and humidity for 24 hours prior to testing.

[3] = Wet tensile strength (Dia-Stron) of relaxed hair after six heat cycles
Procedure: Normal brown hair was processed with Revlon Realistic Professional Extra-Strength Relaxer for 30 min. at standard room temperature and humidity. The relaxed brown hair was subjected to six heat cycles, each heat cycle comprised applying the treatment solutions to the hair, blow-drying the hair, and applying heat to the hair for 1 min. in the form of the Professional Flat Iron (Solid Gold) set at “High” (130° C. to 135° C.). The hair was shampooed with a 10% solution of sodium laureth sulfate after each heat cycle, that is, after the heat application and prior to application of the treatment solution. The treatment solutions included: a) deionized water; and b) 1% (w/v) glucosamine hydrochloride (Glucosamine HCl). The hair was tested for wet tensile strength using a Dia-Stron. The fibers were stretched in water at a rate of 10 mm/min., with 50 fibers per test. The results were averaged, and standard deviations determined. As used herein, “Young's modulus” corresponds to the initial resistance of the hair to the applied pulling force, “Work 25%” is the work required to extend the hair fiber to 25% of its length, “Break Extension” is the hair extension observed at the breaking point expressed at percent of its original length, and “Work-Break” is the work required to break the hair.

[4] = DSC doublet peak area of bleached hair after 6 and 12 heat cycles
Procedure: In the DSC experiments (using DSC-6 with Autosampler, Perkin Elmer), the hair was cut in small fragments (1-2 mm) and sealed in […] aluminum pans that were punctured prior to heating, resulting in a 50 micron laser-drilled opening in the pan lid. The hair was heated from 25° C. to 300° C. at a heating rate of 2^0° C./min. Three runs per section were performed. The results were averaged and standard deviations determined. Normal brown hair was processed with Revlon Realistic Professional Extra-Strength Relaxer for 30 min. at standard room temperature and humidity. The relaxed brown hair was subjected to six heat cycles, each heat cycle comprised applying the treatment solutions to the hair, blow-drying the hair, and applying heat to the hair for 1 min. in the form of the Professional Flat Iron (Solid Gold) set at “High” (130° C. to 135° C.). The hair was shampooed with a 10% solution of sodium laureth sulfate after each heat cycle, that is, after the heat application and prior to application of the treatment solution. Normal brown hair was bleached using […] Blonding Gels Clear with 40 volume (12% hydrogen peroxide). The hair was subject to a total of twelve heat cycles. The heat treatment was as described in Example 2. The heat-treated hair was tested by DSC (Perkin Elmer Pyris 1 DSC) as described in Example 1. The hair was tested after Cycles 6 and 12. The treatment solutions included: a) deionized water, b) 0.001% (w/v) glucosamine hydrochloride solution, c) 0.010% (w/v) glucosamine hydrochloride solution, d) 0.100% (w/v) glucosamine hydrochloride solution, and e) 1.000% (w/v) glucosamine hydrochloride solution. Three DSC runs per treatment were performed, the results were averaged, and standard deviations determined.

[5] = DSC doublet peak area of bleached hair after twelve heat cycles (galactosamine)
Procedure: In the DSC experiments (using DSC-6 with Autosampler, Perkin Elmer), the hair was cut in small fragments (1-2 mm) and sealed in […] aluminum pans that were punctured prior to heating, resulting in a 50 micron laser-drilled opening in the pan lid. The hair was heated from 25° C. to 300° C. at a heating rate of 2^0° C./min. Three runs per section were performed. The results were averaged and standard deviations determined. Normal brown hair was processed with Revlon Realistic Professional Extra-Strength Relaxer for 30 min. at standard room temperature and humidity. The relaxed brown hair was subjected to six heat cycles, each heat cycle comprised applying the treatment solutions to the hair, blow-drying the hair, and applying heat to the hair for 1 min. in the form of the Professional Flat Iron (Solid Gold) set at “High” (130° C. to 135° C.). The hair was shampooed with a 10% solution of sodium laureth sulfate after each heat cycle, that is, after the heat application and prior to application of the treatment solution. Normal brown hair was bleached with […] Blonde Dimensions Dust-Free Bleached mixed with 40 volume (12% hydrogen peroxide). The bleached hair was then subject to twelve heat cycles. The heat treatment was as described in Example 2. The heat-treated hair was tested by DSC (Perkin Elmer Pyris 1 DSC) as described in Example 1. […]

[6] = 1% solution, relaxed hair, six heat cycles
[7] = relaxed hair after 6 cycles at 130° C. with 1% (w/v) solution, wet tensile, n = 50 fibers

NC1OC[C@@H](O)[C@H](O)[C@@H]1O (stereo partly drawn) [D-Lyxosylamine]
protection of the α-structure of hair as compared to the control solution (deionized water) ([1]; 0.1 wt % solution, normal blonde hair, 12 heat cycles): protected the α-structure
Doublet Peak Area ([1]; normal blonde hair after 12 heat cycles with 0.1% solution): 11.49 +/− 3.56 J/g hair

Cl.N[C@H]1C(O)O[C@H](CO)[C@@H](O)[C@@H]1O (some centres unmarked) [Glucosamine HCl, glucosamine hydrochloride]
doublet area as compared to the control solution (deionized water) [2, 6]: significant increase
Doublet Peak Area ([2]; relaxed hair after 6 heat cycles with 1% solution): 23.11 +/− 7.09 J/g hair
tensile properties as compared to the control treatment with deionized water [3, 6]: superior tensile properties
Break Extension [3, 7]: 55.10 +/− 4.77%
Work 25% [3, 7]: 419 +/− 111 J/m^2
Work-Break [3, 7]: 1800 +/− 477 J/m^2
Young's Modulus [3, 7]: 613 +/− 196 MN/m^2
Doublet Peak Area ([4]; 0.001% solution, 6 cycles): 11.11 +/− 1.74 J/g hair
Doublet Peak Area ([4]; 0.001% solution, 12 cycles): 14.74 +/− 5.95 J/g hair
doublet area as compared to the control solution (deionized water) ([4]; 0.001% to 1.000% solutions, 6 and 12 heat cycles): significant increase
Doublet Peak Area ([4]; 0.010% solution, 6 cycles): 12.32 +/− 3.74 J/g hair
Doublet Peak Area ([4]; 0.010% solution, 12 cycles): 21.66 +/− 12.88 J/g hair
Doublet Peak Area ([4]; 0.100% solution, 6 cycles): 17.32 +/− 2.23 J/g hair
Doublet Peak Area ([4]; 0.100% solution, 12 cycles): 20.92 +/− 1.73 J/g hair
Doublet Peak Area ([4]; 1.000% solution, 6 cycles): 19.40 +/− 4.14 J/g hair
Doublet Peak Area ([4]; 1.000% solution, 12 cycles): 22.98 +/− 6.57 J/g hair

Cl.N[C@H]1C(O)O[C@H](CO)[C@H](O)[C@@H]1O (some centres unmarked) [Galactosamine HCI, galactosamine hydrochloride]
doublet area as compared to the control solution (deionized water) ([5]; 1% solution, bleached hair, 12 heat cycles): significant increase
Doublet Peak Area ([5]; bleached hair after 12 heat cycles with 1% solution): 41.52 +/− 3.94 J/g hair
